In patent publication US7101878B1 (Agouron Pharmaceuticals, Inc., priority 1998, dated 2006):

Molecular target: T1, human GnRH receptor (Homo sapiens, UniProt P30968)
T1 construct: expressed in transfected cells; host or cells: HEK 293 (hGnRH-R/293, from Dr. Stuart Sealfon)
T1 sequence (P30968 1-328): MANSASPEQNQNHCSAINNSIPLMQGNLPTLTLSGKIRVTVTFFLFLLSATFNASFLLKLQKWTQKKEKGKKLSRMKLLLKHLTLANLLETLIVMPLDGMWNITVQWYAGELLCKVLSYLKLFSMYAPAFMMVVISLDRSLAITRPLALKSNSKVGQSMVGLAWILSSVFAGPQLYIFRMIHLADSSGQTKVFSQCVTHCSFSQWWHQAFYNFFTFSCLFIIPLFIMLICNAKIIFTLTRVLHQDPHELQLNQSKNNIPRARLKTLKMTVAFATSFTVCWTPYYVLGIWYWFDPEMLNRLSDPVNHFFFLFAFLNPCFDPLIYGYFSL
Test: Radioligand binding, 125I-GnRH-A displacement, membranes of HEK 293 cells with human GnRH receptor
Conditions: read-out: hGnRH IC50
Outline: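 Bound tracer was separated by filtration through polyethyleneimine-soaked GF/C filters and counted by liquid scintillation. IC50 from curve fitting; other species were tested under the same conditions.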

Row | Structure (SMILES) | IC50 [nM]
1 | COc1cc(OC)c(NC(=O)c2ccc(Cc3cc4c(cc3C)C(C)(C)CC4(C)C)o2)c(OC)c1 [Compound 300] | 3.2
2 | COc1cc(NC(=O)c2ccc(Cc3cc4c(cc3C)C(C)(C)CCC4(C)C)o2)cc(OC)c1OC [Compound 301] | 45

Molecular target: T2, mouse GnRH receptor (Mus musculus, UniProt Q01776)
T2 construct: expressed in transfected cells; host or cells: 293 cells
T2 sequence (Q01776 1-327): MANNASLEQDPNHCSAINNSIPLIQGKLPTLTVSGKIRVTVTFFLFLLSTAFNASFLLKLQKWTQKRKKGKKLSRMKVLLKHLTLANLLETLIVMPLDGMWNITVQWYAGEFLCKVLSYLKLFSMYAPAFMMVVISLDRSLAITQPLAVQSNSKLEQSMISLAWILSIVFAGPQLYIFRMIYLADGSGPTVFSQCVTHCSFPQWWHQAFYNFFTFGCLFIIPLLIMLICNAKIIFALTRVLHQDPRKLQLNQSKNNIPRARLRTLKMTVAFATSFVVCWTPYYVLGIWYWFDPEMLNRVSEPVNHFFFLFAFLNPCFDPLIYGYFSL
Test: Radioligand binding, 125I-GnRH-A, 293 cells expressing mouse GnRH receptors
Conditions: 10 uM; read-out: % Inhib. @ 10 uM mGnRH
Outline: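 Bound label captured on 0.1% polyethyleneimine-treated GF/C filters, washed three times with PBS, counted. IC50 derived; identical set-up for every species.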

Row | Structure (SMILES) | inhibition at 10 µM [%]
3 | Cc1cc2c(cc1Cc1ccc(C(=O)N(C)CCC#N)o1)C(C)(C)CCC2(C)C [drawing 1531] | 83
4 | COc1ccc(CCNC(=O)c2ccc(Cc3cc4c(cc3C)C(C)(C)CCC4(C)C)o2)cc1Br [drawing 1532] | 78
5 | Cc1cc2c(cc1Cc1ccc(C(=O)N3CCN(Cc4ccc(C(C)(C)C)cc4)CC3)o1)C(C)(C)CCC2(C)C [drawing 1534] | 65
6 | Cc1cc2c(cc1Cc1ccc(C(=O)N(Cc3cccnc3)Cc3ccco3)o1)C(C)(C)CCC2(C)C [drawing 1535] | 89
7 | Cc1cc2c(cc1Cc1ccc(C(=O)N(CCC#N)CCC#N)o1)C(C)(C)CCC2(C)C [drawing 1536] | 77
8 | CCC(O)CNC(=O)c1ccc(Cc2cc3c(cc2C)C(C)(C)CCC3(C)C)o1 (stereo not drawn) [drawing 1537] | 99
9 | Cc1cc2c(cc1Cc1ccc(C(=O)N(Cc3cccnc3)Cc3cccnc3)o1)C(C)(C)CCC2(C)C [drawing 1538] | 101
10 | CNC(=O)c1ccc(Cc2cc3c(cc2C)C(C)(C)CCC3(C)C)o1 [drawing 1539] | 23
11 | Cc1cc2c(cc1Cc1ccc(C(=O)N(Cc3ccccc3)C(C)C)o1)C(C)(C)CCC2(C)C [drawing 1541] | 84
12 | Cc1cc2c(cc1Cc1ccc(C(=O)N(Cc3ccccc3)[C@@H](C)c3ccccc3)o1)C(C)(C)CCC2(C)C [drawing 1542] | 46
13 | CCN(Cc1ccc(C)cc1)C(=O)c1ccc(Cc2cc3c(cc2C)C(C)(C)CCC3(C)C)o1 [drawing 1543] | 79
14 | Cc1cc2c(cc1Cc1ccc(C(=O)N3CCC(NC(=O)OC(C)(C)C)C3)o1)C(C)(C)CCC2(C)C (stereo not drawn) [drawing 1544] | 82
15 | Cc1cc2c(cc1Cc1ccc(C(=O)N3CCCC3C)o1)C(C)(C)CCC2(C)C (stereo not drawn) [drawing 1545] | 102
16 | CCC(CC)NC(=O)c1ccc(Cc2cc3c(cc2C)C(C)(C)CCC3(C)C)o1 [drawing 1546] | 76
17 | CCCC(CO)NC(=O)c1ccc(Cc2cc3c(cc2C)C(C)(C)CCC3(C)C)o1 (stereo not drawn) [drawing 1547] | 99
18 | CCCCN(C)C(=O)c1ccc(Cc2cc3c(cc2C)C(C)(C)CCC3(C)C)o1 [drawing 1548] | 100
19 | COC(CN(C)C(=O)c1ccc(Cc2cc3c(cc2C)C(C)(C)CCC3(C)C)o1)OC [drawing 1549] | 90
20 | Cc1cc2c(cc1Cc1ccc(C(=O)NCCCCCCO)o1)C(C)(C)CCC2(C)C [drawing 1550] | 103
21 | Cc1cc2c(cc1Cc1ccc(C(=O)N(CCC(c3ccccc3)c3ccccc3)Cc3ccco3)o1)C(C)(C)CCC2(C)C [drawing 1552] | 43
22 | Cc1cc2c(cc1Cc1ccc(C(=O)N(CCC(c3ccccc3)c3ccccc3)Cc3ccccn3)o1)C(C)(C)CCC2(C)C [drawing 1554] | 50
23 | Cc1cc2c(cc1Cc1ccc(C(=O)N(CCc3ccccc3)Cc3ccoc3)o1)C(C)(C)CCC2(C)C [drawing 1557] | 61
24 | COc1ccccc1CN(C(=O)c1ccc(Cc2cc3c(cc2C)C(C)(C)CCC3(C)C)o1)C1CCN(Cc2ccccc2)C1 (stereo not drawn) [drawing 1558] | 91
25 | Cc1cc2c(cc1Cc1ccc(C(=O)N(Cc3ccco3)C3CCN(Cc4ccccc4)C3)o1)C(C)(C)CCC2(C)C (stereo not drawn) [drawing 1559] | 94
26 | Cc1cc2c(cc1Cc1ccc(C(=O)N(Cc3ccsc3)C3CCN(Cc4ccccc4)C3)o1)C(C)(C)CCC2(C)C (stereo not drawn) [drawing 1560] | 91
27 | Cc1cc2c(cc1Cc1ccc(C(=O)N(Cc3ccoc3)C3CCN(Cc4ccccc4)C3)o1)C(C)(C)CCC2(C)C (stereo not drawn) [drawing 1561] | 91
28 | Cc1cc2c(cc1Cc1ccc(C(=O)N(Cc3cccn3C)C3CCN(Cc4ccccc4)C3)o1)C(C)(C)CCC2(C)C (stereo not drawn) [drawing 1562] | 98

Row | Structure (SMILES) | inhibition at 10 µM [%]
29 | Cc1cc2c(cc1Cc1ccc(C(=O)N(Cc3cccc4ccccc34)C3CCN(Cc4ccccc4)C3)o1)C(C)(C)CCC2(C)C (stereo not drawn) [drawing 1563] | 57
30 | Cc1cc2c(cc1Cc1ccc(C(=O)N(Cc3ccc(C(C)C)cc3)C3CCN(Cc4ccccc4)C3)o1)C(C)(C)CCC2(C)C (stereo not drawn) [drawing 1564] | 48
31 | CCN1CC(N(Cc2ccccc2C#N)C(=O)c2ccc(Cc3cc4c(cc3C)C(C)(C)CCC4(C)C)o2)CN1CC [drawing 1565] | 101
32 | CCN1CC(N(Cc2ccc(N(C)C)cc2)C(=O)c2ccc(Cc3cc4c(cc3C)C(C)(C)CCC4(C)C)o2)CN1CC [drawing 1566] | 95
33 | CCN1CC(N(CCC(C)CCCC(C)(C)O)C(=O)c2ccc(Cc3cc4c(cc3C)C(C)(C)CCC4(C)C)o2)CN1CC (stereo not drawn) [drawing 1567] | 104
34 | CCN1CC(N(CCC(C)c2ccccc2)C(=O)c2ccc(Cc3cc4c(cc3C)C(C)(C)CCC4(C)C)o2)CN1CC (stereo not drawn) [drawing 1568] | 95
35 | Cc1cc2c(cc1Cc1ccc(C(=O)NCc3cccc(NC(=O)NC(Cc4ccccc4)c4ccccc4)c3)o1)C(C)(C)CCC2(C)C (stereo not drawn) [drawing 1570] | 42
36 | Cc1cc2c(cc1Cc1ccc(C(=O)NCc3cccc(CNC(=O)C(Cc4ccccc4)c4ccccc4)c3)o1)C(C)(C)CCC2(C)C (stereo not drawn) [drawing 1571] | 47
37 | C=C(C)CNC(=O)c1ccc(Cc2cc3c(cc2C)C(C)(C)CCC3(C)C)o1 [drawing 1573] | 93
38 | Cc1cc2c(cc1Cc1ccc(C(=O)NCCc3ccc(F)cc3)o1)C(C)(C)CCC2(C)C [drawing 1574] | 79
39 | COc1cc(OC)cc(N2CCN(C(=O)c3ccc(Cc4cc5c(cc4C)C(C)(C)CCC5(C)C)o3)CC2)c1 [drawing 1576] | 65
40 | Cc1cc2c(cc1Cc1ccc(C(=O)NC(C)(C)CC(C)(C)C)o1)C(C)(C)CCC2(C)C [drawing 1577] | 66
41 | Cc1cc2c(cc1Cc1ccc(C(=O)N3CCC(NC(=O)C(F)(F)F)C3)o1)C(C)(C)CCC2(C)C (stereo not drawn) [drawing 1578] | 60
42 | CSCCC(CO)NC(=O)c1ccc(Cc2cc3c(cc2C)C(C)(C)CCC3(C)C)o1 (stereo not drawn) [drawing 1580] | 105
43 | CC[C@H](C)C(CO)NC(=O)c1ccc(Cc2cc3c(cc2C)C(C)(C)CCC3(C)C)o1 (stereo partly drawn) [drawing 1581] | 77
44 | COc1cc2c(cc1OC)C(CC#N)N(C(=O)c1ccc(Cc3cc4c(cc3C)C(C)(C)CCC4(C)C)o1)CC2 (stereo not drawn) [drawing 1582] | 52
45 | Cc1cc2c(cc1Cc1ccc(C(=O)N(C)CCC3OCCO3)o1)C(C)(C)CCC2(C)C [drawing 1583] | 96
46 | Cc1cc2c(cc1Cc1ccc(C(=O)NC(C)CN(C)C)o1)C(C)(C)CCC2(C)C (stereo not drawn) [drawing 1584] | 92
47 | Cc1cc2c(cc1Cc1ccc(C(=O)NC(C)(C)CO)o1)C(C)(C)CCC2(C)C [drawing 1585] | 90
48 | CSCCCNC(=O)c1ccc(Cc2cc3c(cc2C)C(C)(C)CCC3(C)C)o1 [drawing 1586] | 99
49 | CSCCNC(=O)c1ccc(Cc2cc3c(cc2C)C(C)(C)CCC3(C)C)o1 [drawing 1587] | 97
50 | CCSCCNC(=O)c1ccc(Cc2cc3c(cc2C)C(C)(C)CCC3(C)C)o1 [drawing 1588] | 99
51 | COC(OC)C(C)NC(=O)c1ccc(Cc2cc3c(cc2C)C(C)(C)CCC3(C)C)o1 (stereo not drawn) [drawing 1589] | 97
52 | CCCOCCNC(=O)c1ccc(Cc2cc3c(cc2C)C(C)(C)CCC3(C)C)o1 [drawing 1590] | 103
53 | Cc1cc2c(cc1Cc1ccc(C(=O)NCCC3OCCO3)o1)C(C)(C)CCC2(C)C [drawing 1591] | 104
54 | CCOC(=O)CCNC(=O)c1ccc(Cc2cc3c(cc2C)C(C)(C)CCC3(C)C)o1 [drawing 1592] | 99

Same assay, conditions: read-out: mGnRH IC50

Row | Structure (SMILES) | IC50 [nM]
55 | COc1cc(OC)c(NC(=O)c2ccc(Cc3cc4c(cc3C)C(C)(C)CC4(C)C)o2)c(OC)c1 [Compound 300] | 3.1
56 | COc1cc(NC(=O)c2ccc(Cc3cc4c(cc3C)C(C)(C)CCC4(C)C)o2)cc(OC)c1OC [Compound 301] | 38

Test system: not listed separately
Test: Pharmacokinetic studies / bioavailability in rats
Format: in vivo, rat
Conditions: female, rat, plasma, po, 10 mg/kg, rat female; p.o. 10 mg/kg; 5 mg/ml solution in 10% DMSO 10% cremophor 80% saline

Row | Structure (SMILES) | Cmax [nM] | Tmax [h]
57 | COc1cc(OC)c(NC(=O)c2ccc(Cc3cc4c(cc3C)C(C)(C)CC4(C)C)o2)c(OC)c1 [Compound 300] | 360 | 1

Same assay, conditions: female, rat, plasma, rat female

Row | Structure (SMILES) | half-life [h]
58 | COc1cc(OC)c(NC(=O)c2ccc(Cc3cc4c(cc3C)C(C)(C)CC4(C)C)o2)c(OC)c1 [Compound 300] | 2.1

Same assay, conditions: rat female; 5 mg/ml solution in 10% DMSO 10% cremophor 80% saline

Row | Structure (SMILES) | Fp.o.
59 | COc1cc(OC)c(NC(=O)c2ccc(Cc3cc4c(cc3C)C(C)(C)CC4(C)C)o2)c(OC)c1 [Compound 300] | 10% (10 mg/kg)^10
